Blank lines part the entries; values can stand above or below the molecule they belong to.
Experiments:
[1] = target: T1, Peroxisome proliferator-activated receptor gamma (Homo sapiens, UniProt P37231)
T1 sequence (P37231 whole entry): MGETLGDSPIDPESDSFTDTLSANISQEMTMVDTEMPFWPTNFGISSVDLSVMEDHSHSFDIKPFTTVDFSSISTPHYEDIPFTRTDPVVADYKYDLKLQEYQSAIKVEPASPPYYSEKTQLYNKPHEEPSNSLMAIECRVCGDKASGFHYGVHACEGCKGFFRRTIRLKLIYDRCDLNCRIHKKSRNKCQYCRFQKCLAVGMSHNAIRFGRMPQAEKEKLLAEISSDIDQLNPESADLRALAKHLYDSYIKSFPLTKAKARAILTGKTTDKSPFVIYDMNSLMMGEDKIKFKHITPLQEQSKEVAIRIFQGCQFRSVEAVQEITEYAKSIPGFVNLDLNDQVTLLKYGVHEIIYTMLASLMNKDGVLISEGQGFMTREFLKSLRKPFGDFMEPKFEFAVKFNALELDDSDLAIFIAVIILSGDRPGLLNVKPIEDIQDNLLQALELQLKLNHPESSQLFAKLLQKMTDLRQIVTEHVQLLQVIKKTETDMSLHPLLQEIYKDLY

Mus musculus [2] = assay: Hypolipidemic effect on diabetic KKAy mouse model assessed as reduction of plasma triglyceride level at 1 mg/kg, po QD for 4 days; assay type: functional; design: scale not given: the % may be the effect or the level left
[3] = target: T2, Peroxisome proliferator-activated receptor delta (Homo sapiens, UniProt Q03181); assay: Agonist activity at human PPARdelta expressed in monkey CV1 cells by transactivation assay; assay type: functional, cell-based, CV-1
T2 sequence (Q03181 whole entry): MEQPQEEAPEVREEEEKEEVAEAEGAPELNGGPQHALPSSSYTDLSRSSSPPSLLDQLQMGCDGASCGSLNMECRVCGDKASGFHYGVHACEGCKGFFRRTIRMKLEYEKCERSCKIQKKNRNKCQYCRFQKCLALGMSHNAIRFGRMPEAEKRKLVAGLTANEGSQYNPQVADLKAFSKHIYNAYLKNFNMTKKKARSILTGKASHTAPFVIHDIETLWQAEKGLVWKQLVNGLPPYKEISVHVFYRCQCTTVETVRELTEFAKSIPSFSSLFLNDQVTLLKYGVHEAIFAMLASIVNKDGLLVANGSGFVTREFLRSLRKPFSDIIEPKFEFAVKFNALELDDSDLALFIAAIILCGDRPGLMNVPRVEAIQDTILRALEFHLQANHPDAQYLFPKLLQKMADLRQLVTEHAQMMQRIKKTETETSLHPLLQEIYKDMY

[4] = target: T3, Peroxisome proliferator-activated receptor delta (Homo sapiens) (UniProt Q03181); assay: Agonist activity at human PPARdelta expressed in monkey CV1 cells at 10 uM by transactivation assay; assay type: functional, cell-based; conditions: CV-1
T3 sequence (whole entry): T2 sequence (Q03181 whole entry)

[5] = target: T4, Peroxisome proliferator-activated receptor alpha (Homo sapiens, UniProt Q07869); assay: Agonist activity at human PPARalpha expressed in monkey CV1 cells by transactivation assay; assay type: functional, cell-based, CV-1
T4 sequence (Q07869 whole entry): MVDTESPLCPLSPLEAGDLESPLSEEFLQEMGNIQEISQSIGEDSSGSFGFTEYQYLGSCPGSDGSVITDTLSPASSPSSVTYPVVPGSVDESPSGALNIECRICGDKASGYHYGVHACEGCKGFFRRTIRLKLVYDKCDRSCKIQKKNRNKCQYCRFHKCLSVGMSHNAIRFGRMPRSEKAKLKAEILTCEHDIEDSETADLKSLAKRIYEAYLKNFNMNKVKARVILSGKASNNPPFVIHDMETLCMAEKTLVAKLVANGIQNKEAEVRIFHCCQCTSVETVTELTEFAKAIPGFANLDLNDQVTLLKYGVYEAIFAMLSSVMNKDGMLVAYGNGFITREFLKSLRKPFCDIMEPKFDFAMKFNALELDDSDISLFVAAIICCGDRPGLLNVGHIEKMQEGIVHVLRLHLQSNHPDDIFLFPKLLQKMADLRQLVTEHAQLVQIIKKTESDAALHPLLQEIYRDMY

[6] = target: T5, Peroxisome proliferator-activated receptor gamma (Homo sapiens) (UniProt P37231); assay: Agonist activity at human PPARgamma expressed in monkey CV1 cells at 10 uM by transactivation assay; assay type: functional, cell-based; conditions: CV-1
T5 sequence (whole entry): T1 sequence (P37231 whole entry)

[7] = target: T6, Peroxisome proliferator-activated receptor alpha (Homo sapiens) (UniProt Q07869); assay: Agonist activity at human PPARalpha expressed in monkey CV1 cells at 10 uM by transactivation assay; assay type: functional, cell-based; conditions: CV-1
T6 sequence (whole entry): T4 sequence (Q07869 whole entry)

Mus musculus [8] = assay: Hypolipidemic effect on diabetic KKAy mouse model assessed as reduction of VLDL cholesterol level at 3 mg/kg, po QD for 4 days; assay type: functional; design: scale not given: the % may be the effect or the level left
Mus musculus [9] = assay: (§1) Hypolipidemic effect on diabetic KKAy mouse model assessed as increase in HDL cholesterol level at 3 mg/kg, po QD for 4 days; assay type: functional
[10] = target: T7, Peroxisome proliferator-activated receptor gamma (Mus musculus, UniProt P37238); assay: Agonist activity at mouse PPARgamma by transactivation assay; assay type: functional
T7 sequence (P37238 whole entry): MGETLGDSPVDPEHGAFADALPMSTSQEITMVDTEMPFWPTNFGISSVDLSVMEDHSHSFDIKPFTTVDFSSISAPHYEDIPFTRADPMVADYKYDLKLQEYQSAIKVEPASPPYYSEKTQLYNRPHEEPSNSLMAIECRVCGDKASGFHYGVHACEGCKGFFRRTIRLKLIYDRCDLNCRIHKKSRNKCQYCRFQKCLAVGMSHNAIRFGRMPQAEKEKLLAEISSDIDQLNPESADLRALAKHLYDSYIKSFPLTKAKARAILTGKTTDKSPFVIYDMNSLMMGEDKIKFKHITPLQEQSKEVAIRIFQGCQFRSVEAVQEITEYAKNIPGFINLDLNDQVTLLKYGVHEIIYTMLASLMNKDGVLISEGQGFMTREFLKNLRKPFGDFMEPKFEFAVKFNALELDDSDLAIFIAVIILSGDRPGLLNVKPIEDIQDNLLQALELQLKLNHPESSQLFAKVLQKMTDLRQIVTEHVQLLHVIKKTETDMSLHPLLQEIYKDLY

[11] = target: T8, Peroxisome proliferator-activated receptor alpha (Mus musculus, UniProt P23204); assay: Agonist activity at mouse PPARalpha by transactivation assay; assay type: functional
T8 sequence (P23204 whole entry): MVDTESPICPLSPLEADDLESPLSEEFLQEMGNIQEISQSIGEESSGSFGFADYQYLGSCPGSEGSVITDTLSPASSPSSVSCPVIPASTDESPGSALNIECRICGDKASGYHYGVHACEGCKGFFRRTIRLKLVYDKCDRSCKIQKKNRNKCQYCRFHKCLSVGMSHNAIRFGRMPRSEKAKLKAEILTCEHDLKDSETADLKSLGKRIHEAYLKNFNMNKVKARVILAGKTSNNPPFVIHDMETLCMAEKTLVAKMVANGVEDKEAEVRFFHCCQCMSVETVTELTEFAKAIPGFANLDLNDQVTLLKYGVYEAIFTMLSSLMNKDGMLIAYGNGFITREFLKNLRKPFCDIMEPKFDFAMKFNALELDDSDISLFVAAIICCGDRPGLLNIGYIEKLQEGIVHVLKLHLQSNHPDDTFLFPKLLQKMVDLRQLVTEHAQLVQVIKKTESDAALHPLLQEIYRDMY

[12] = target: T9, Peroxisome proliferator-activated receptor delta (Mus musculus) (UniProt P35396); assay: Agonist activity at mouse PPARdelta at 10 uM by transactivation assay; assay type: functional
T9 sequence (whole entry): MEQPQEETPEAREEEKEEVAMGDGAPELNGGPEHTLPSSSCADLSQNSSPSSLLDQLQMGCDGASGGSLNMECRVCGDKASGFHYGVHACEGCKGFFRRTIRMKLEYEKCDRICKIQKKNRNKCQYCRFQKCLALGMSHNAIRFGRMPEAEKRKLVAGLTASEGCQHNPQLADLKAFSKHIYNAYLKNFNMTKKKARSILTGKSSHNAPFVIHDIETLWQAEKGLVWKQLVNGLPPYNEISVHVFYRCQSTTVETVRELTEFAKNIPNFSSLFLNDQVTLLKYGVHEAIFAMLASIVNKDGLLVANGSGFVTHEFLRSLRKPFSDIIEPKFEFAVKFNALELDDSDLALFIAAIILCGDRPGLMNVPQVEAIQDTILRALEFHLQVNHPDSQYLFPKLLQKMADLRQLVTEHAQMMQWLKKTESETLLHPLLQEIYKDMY

Mus musculus [13] = assay: Hypoglycemic effect on diabetic KKAy mouse model assessed as reduction of plasma glucose level at 3 mg/kg, po QD for 4 days; assay type: functional; design: scale not given: the % may be the effect or the level left
Mus musculus [14] = assay: Hypolipidemic effect on diabetic KKAy mouse model assessed as reduction of plasma triglyceride level at 3 mg/kg, po QD for 4 days; assay type: functional; design: scale not given: the % may be the effect or the level left
Mus musculus [15] = assay: as §1; assay type: functional; remark: listed apart in the source
Mus musculus [16] = assay: Hypolipidemic effect on diabetic KKAy mouse model assessed as reduction of VLDL cholesterol level at 1 mg/kg, po QD for 4 days; assay type: functional; design: scale not given: the % may be the effect or the level left
Homo sapiens [17] = species on record: Homo sapiens; assay: Selectivity of human PPARalpha over human PPARgamma
[18] = target: T10, Peroxisome proliferator-activated receptor gamma (Mus musculus) (UniProt P37238); assay: Agonist activity at mouse PPARgamma at 10 uM by transactivation assay; assay type: functional
T10 sequence (whole entry): T7 sequence (P37238 whole entry)

Homo sapiens [19] = species on record: Homo sapiens; assay: Selectivity of human PPARalpha over human PPARdelta
Mus musculus [20] = assay: Hypoglycemic effect on diabetic KKAy mouse model assessed as reduction of plasma glucose level at 1 mg/kg, po QD for 4 days; assay type: functional; design: scale not given: the % may be the effect or the level left
Mus musculus [21] = assay: Hypolipidemic effect on diabetic KKAy mouse model assessed as increase in HDL cholesterol level at 300 mg/kg, po QD for 4 days; assay type: functional
Mus musculus [22] = assay: Hypolipidemic effect on diabetic KKAy mouse model assessed as reduction of plasma triglyceride level at 300 mg/kg, po QD for 4 days; assay type: functional; design: scale not given: the % may be the effect or the level left
Mus musculus [23] = assay: Hypolipidemic effect on diabetic KKAy mouse model assessed as reduction of VLDL cholesterol level at 300 mg/kg, po QD for 4 days; assay type: functional; design: scale not given: the % may be the effect or the level left
Mus musculus [24] = assay: Hypoglycemic effect on diabetic KKAy mouse model assessed as reduction of plasma glucose level at 300 mg/kg, po QD for 4 days; assay type: functional; design: scale not given: the % may be the effect or the level left

SMILES: Cc1oc(-c2ccccc2)nc1CCCCCCOC(C)(C)C(=O)O
EC50 [1]: 0.3 µM
Activity (Mus musculus [2]): 32%
EC50 [3]: 30 µM

SMILES: Cc1oc(-c2ccccc2)nc1CCCCC[C@H]1CO[C@@](C)(C(=O)O)OC1
EC50 [1]: 0.3 µM
Activity [4]: 34%
EC50 [5]: 0.1 µM

Activity [6]: 10%
Activity [4]: 0%
Activity [7]: 5%
SMILES: Cc1oc(-c2ccccc2)nc1Cc1ccc([C@H]2CO[C@@](C)(C(=O)O)OC2)cc1

EC50 [10]: 10 µM
EC50 [1]: 10 µM
Activity [4]: 19%
EC50 [11]: 100 nM
Activity [12]: 7%
EC50 [5]: 0.03 µM
SMILES: CC[C@]1(C(=O)O)OC[C@@H](CCCCc2nc(-c3ccccc3)oc2C)CO1
Activity (Mus musculus [8]): 26%
Activity (Mus musculus [9]): 5%
Activity (Mus musculus [13]): 18%
Activity (Mus musculus [14]): 52%

Activity [4]: 0%
Activity [12]: 6%
Ratio EC50 (Homo sapiens [17]): > 300
Activity [18]: 21%
Ratio EC50 (Homo sapiens [19]): > 300
SMILES: Cc1oc(-c2ccccc2)nc1CCCC[C@H]1CO[C@@](C)(C(=O)O)OC1
Activity (Mus musculus [8]): 49%
Activity (Mus musculus [9]): 55%
Activity (Mus musculus [15]): 36%
Activity (Mus musculus [16]): 29%
Activity (Mus musculus [2]): 46%
Activity (Mus musculus [13]): 13%
Activity (Mus musculus [14]): 56%
Activity (Mus musculus [20]): 12%

Activity [6]: 2%
Activity [4]: 12%
Activity [7]: 8%
SMILES: Cc1oc(-c2ccccc2)nc1CCC[C@H]1CO[C@@](C)(C(=O)O)OC1

EC50 [1]: 30 µM
Activity [4]: 10%
EC50 [5]: 3 µM
SMILES: Cc1oc(-c2ccccc2)nc1CCCC[C@H]1CO[C@](C)(C(=O)O)OC1

EC50 [1]: 3 µM
Activity [4]: 38%
EC50 [5]: 3 µM
SMILES: Cc1oc(-c2ccccc2)nc1Cc1ccc(C[C@H]2CO[C@@](C)(C(=O)O)OC2)cc1

EC50 [1]: 1 µM
Activity [4]: 28%
EC50 [5]: 3 µM
SMILES: Cc1oc(-c2ccccc2)nc1Cc1cccc(C[C@H]2CO[C@@](C)(C(=O)O)OC2)c1

EC50 [1]: 10 µM
Activity [4]: 6%
EC50 [5]: 0.03 µM
SMILES: Cc1oc(-c2ccccc2)nc1CCCC[C@H]1CO[C@@](CC(C)C)(C(=O)O)OC1

SMILES: CC(C)OC(=O)C(C)(C)Oc1ccc(C(=O)c2ccc(Cl)cc2)cc1 [FENOFIBRATE]
Activity (Mus musculus [21]): 17%
Activity (Mus musculus [22]): 40%
Activity (Mus musculus [23]): 31%
Activity (Mus musculus [24]): 25%

EC50 [1]: 100 µM
SMILES: CC(C)(Oc1ccc(CCNC(=O)c2ccc(Cl)cc2)cc1)C(=O)O [BEZAFIBRATE]

Activity [6]: 0%
Activity [4]: 3%
Activity [7]: 8%
SMILES: Cc1oc(-c2ccccc2)nc1CCCC[C@H]1CO[C@@H](C(=O)O)OC1

Activity [6]: 12%
Activity [4]: 7%
EC50 [5]: 3 µM
SMILES: Cc1oc(-c2ccccc2)nc1Cc1cccc([C@H]2CO[C@@](C)(C(=O)O)OC2)c1
